Data as given in patent US8153593B2, “Transglutaminase inhibitors and methods of use thereof” (The Board of Trustees of the Leland Stanford Junior …, priority 2003, dated 2012).

Columns and labels:
jejunal TG2 = target: T1, jejunal TG2 (Rattus norvegicus, UniProt Q9WVJ6); test: Jejunal mucosal TG2 activity after oral dosing in kneaded gluten vehicle; format: in vivo, rats; conditions: 35 mg/kg oral in kneaded gluten vehicle, 1 h after administration
T1 construct: from tissue; host or cells: rat jejunal mucosa
T1 sequence (Q9WVJ6 1-686): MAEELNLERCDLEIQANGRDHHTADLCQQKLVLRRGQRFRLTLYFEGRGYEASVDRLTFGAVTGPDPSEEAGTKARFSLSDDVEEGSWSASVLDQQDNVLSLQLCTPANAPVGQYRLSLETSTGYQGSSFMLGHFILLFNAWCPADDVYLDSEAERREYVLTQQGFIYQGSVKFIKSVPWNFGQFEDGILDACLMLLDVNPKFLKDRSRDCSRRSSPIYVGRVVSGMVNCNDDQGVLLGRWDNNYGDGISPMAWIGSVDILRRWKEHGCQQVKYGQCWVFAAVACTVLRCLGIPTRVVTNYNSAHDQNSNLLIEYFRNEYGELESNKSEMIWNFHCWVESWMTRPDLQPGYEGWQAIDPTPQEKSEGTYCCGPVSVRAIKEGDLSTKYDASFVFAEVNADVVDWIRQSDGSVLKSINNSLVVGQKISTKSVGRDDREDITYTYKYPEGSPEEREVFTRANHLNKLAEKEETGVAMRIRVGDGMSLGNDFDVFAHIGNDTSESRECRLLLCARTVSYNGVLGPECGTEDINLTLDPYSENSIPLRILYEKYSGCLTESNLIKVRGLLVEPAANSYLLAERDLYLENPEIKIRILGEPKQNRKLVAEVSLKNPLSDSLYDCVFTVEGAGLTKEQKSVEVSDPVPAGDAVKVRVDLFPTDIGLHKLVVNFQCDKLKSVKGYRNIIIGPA
Description: Due to the absence of an appropriate animal model for Celiac Sprue, the therapeutic benefit of TG2 inhibitors for this disease can only be validated in patients. Our goal is therefore to identify a safe, oral TG2 inhibitor that can block mucosal TG2 activity in the upper small intestine of Celiac Sprue patients. Such an agent could be used in the context of a short (2 week) blinded crossover trial in Celiac Sprue patients to determine if TG2 inhibition protects a Celiac Sprue patient from gluten-induced malabsorption. From available data, KCC009 may be precisely such a compound. […] To test whether orally administered KCC009 can inhibit jejunal TG2 activity, adult male rats were dosed with 35 mg/kg KCC009 in a kneaded gluten vehicle. Animals were sacrificed 1 h after administration of either vehicle-gluten (n=3) or drug-gluten (n=4), and jejunal mucosa was harvested. In vehicle treated animals, jejunal TG2 activity was 21±7 pmol/min/mg protein, whereas in KCC009 treated rats TG2 activity of 5.5±3 pmol/min/mg protein was observed. Thus, a suitable oral formulation may therefore enable local delivery of KCC009 to intestinal mucosa.

intracranial DBT tumors = test: Intracranial DBT glioblastoma dose-finding and chemosensitizer studies; format: in vivo, mice
Experimental: (§1) To test whether therapeutic doses of KCC009 can modulate TG2 activity associated with intracranial glioblastomas, DBT tumors were injected intracranially in mice. As judged by MRI, the mice consistently established intracranial tumors after 7-10 days following injections, which, if untreated, caused death by 2-3 weeks. In an initial dose-finding experiment, cohorts of mice were administered 4 daily doses of vehicle or KCC009 (12.5 mg/kg, 25 mg/kg and 50 mg/kg) starting on day 11 after intra-cranial injections. Twenty-four hours later, the mice were sacrificed and tumors analyzed. […] Based on these findings a dose of 35 mg/kg was used for subsequent experiments in mice harboring intracranial DBT tumors.
To evaluate the activity of KCC009 as a chemosensitizer, mice harboring DBT tumors were treated either with 10 mg/kg BCNU alone (2 mice) or BCNU+35 mg/kg KCC009 (3 mice). As before, 4 daily drug doses were administered intraperitoneally starting on day 11. Tumors were harvested for immuno-histological analysis 24 h after the last dose.

[1] = system: subcutaneous murine DBT glioblastoma tumors; test: Subcutaneous DBT glioblastoma tumor study with BCNU; conditions: in vivo, combination with BCNU
[2] = Preliminary pharmacokinetic and toxicity studies; conditions: mice
glioblastoma cells = test: In vitro treatment of glioblastoma cells; format: cell-based
tumor associated TG2 = target: T2, tumor associated TG2 (Mus musculus, UniProt P21981); test: Intracranial DBT tumor associated TG2 activity after dosing; format: in vivo, mice
T2 construct: from tissue; host or cells: intracranial DBT glioblastoma tumours from dosed mice
T2 sequence (P21981 1-686): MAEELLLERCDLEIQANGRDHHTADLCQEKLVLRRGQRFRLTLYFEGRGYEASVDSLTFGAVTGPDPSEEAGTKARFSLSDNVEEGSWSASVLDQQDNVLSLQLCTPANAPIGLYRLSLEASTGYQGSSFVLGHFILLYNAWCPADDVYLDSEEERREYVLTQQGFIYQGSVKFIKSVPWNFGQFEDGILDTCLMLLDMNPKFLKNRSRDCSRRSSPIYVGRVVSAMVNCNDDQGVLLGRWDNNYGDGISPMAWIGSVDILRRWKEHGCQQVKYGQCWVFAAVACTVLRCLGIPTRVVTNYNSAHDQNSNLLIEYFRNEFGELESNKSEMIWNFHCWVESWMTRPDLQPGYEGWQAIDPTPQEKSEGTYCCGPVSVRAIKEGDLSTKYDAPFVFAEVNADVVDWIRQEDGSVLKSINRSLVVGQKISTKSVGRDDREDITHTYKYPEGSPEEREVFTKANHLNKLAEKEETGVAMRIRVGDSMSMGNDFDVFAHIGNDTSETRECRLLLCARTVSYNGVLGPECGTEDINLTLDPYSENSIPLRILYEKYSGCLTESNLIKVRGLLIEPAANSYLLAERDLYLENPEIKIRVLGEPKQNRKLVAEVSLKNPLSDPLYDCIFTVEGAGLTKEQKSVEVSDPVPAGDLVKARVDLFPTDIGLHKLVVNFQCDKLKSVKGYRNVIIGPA
Experimental: as §1
As summarized in Table 4, KCC009 treatment led to significant suppression of TG2 activity after 15 min, whereas enzyme activity recovers fully by 24 h. Both uninhibited and inhibited activity levels are consistent with similar measurements in the small intestinal mucosa (data not shown).

Which “jejunal TG2 activity” value (jejunal TG2) does the source give for `O=C(N[C@@H](Cc1ccc(O)cc1)C(=O)NCC1CC(Br)=NO1)OCc1ccccc1` (stereo partly shown) [Compound 59] here?
The value was 5.5±3 pmol/min/mg protein.

What about the “fibronectin staining of tumors” value (intracranial DBT tumors; 10 mg/kg BCNU + 35 mg/kg KCC009 i.p., 4 daily doses, versus BCNU alone) of the same compound?
The value was “decrease in fibronectin staining overall and an apparent dramatic decrease in the extracellular matrix”.

What about the “gross tumor size and brain swelling” value (intracranial DBT tumors; 12.5 mg/kg or 25 mg/kg, 4 daily doses from day 11) of the same compound?
The value was “smaller tumors and reduced brain swelling”.

What about the gross tumor (intracranial DBT tumors; 50 mg/kg, 4 daily doses from day 11, one mouse) of the same compound?
Its gross tumor is “did not have any gross tumor”.

And the “synergism with BCNU” value [1]?
The value was “excellent synergism”.

And the oral bioavailability [2]?
Its oral bioavailability is “reasonable oral bioavailability”.

What about the serum half-life [2] of the same compound?
The serum half-life was “short”.

And the toxicity [2]?
The toxicity was “low toxicity”.

What about the apoptosis (glioblastoma cells) of the same compound?
Its apoptosis is “promoted apoptosis”.

And the “changes in levels of survival proteins” value (glioblastoma cells)?
The value was “markedly decreased levels of phosphorylated Akt, survivin, phosphorylated Bad, and phosphorylated glycogen synthetase kinase 3β; and increased levels of the pro-apoptotic BH3-only protein, Bim”.

And the “sensitivity to chemotherapeutic agents” value (glioblastoma cells)?
Its value is “enhanced sensitivity to chemotherapeutic agents”.

And the “TG2 activity-BCNU + KCC009” value (tumor associated TG2; BCNU + 50 mg/kg KCC009, 15 min after last of four daily doses)?
The value was 1.2 ± 0.3 (n = 4) nmol/h/mg protein.

What about the “TG2 activity-BCNU + KCC009” value (tumor associated TG2; BCNU + 50 mg/kg KCC009, 24 h after last of four daily doses) of the same compound?
Its value is 2.1 ± 0.2 (n = 3) nmol/h/mg protein.
